In patent publication US20130064812A1, “COMBINATION THERAPIES FOR HEMATOLOGIC MALIGNANCIES” (Gilead Calistoga LLC, priority 2011, published 2013):

Columns and labels:
[1] = system: mantle cell lymphoma lesions; experiment: Lesion area in a patient with mantle cell lymphoma; assay type: in vivo, human; details: 50 mg BID oral, 28 days (1 cycle)
Method: This example provides data relating to the area of lesions of a patient with mantle cell lymphoma after 1 cycle of treatment (28 days) with the compound of formula I. The area of 6 lesions was measured prior to treatment and after a cycle of treatment. […] The results are summarized in a bar graph found in FIG. 12.

caspase 3 and PARP = experiment: Cleavage of caspase 3 and PARP (immunoblot, Meso Scale plates); assay type: cell-based; details: 5 or 10 μM, 24 hrs
Method: FIGS. […]
Thereafter, cells were lysed and sized-fractionated and immunoblotted with antibody directed against FLIP, FIG. 29. Additionally, whole cell lysates were added to MDS (Meso Scale Diagnostics) multi-spot 96-well 4 spot plates coated with Total caspase-3, cleaved caspase-3, cleaved PARP, and BSA. Proteins were detected with antibodies labeled with SULFO-TAG reagent and quantified.

[2] = system: CLL cells with purified B-cells; experiment: IgM production by B-cells cultured with treated CLL cells (ELISA); assay type: cell-based, human; details: 0.5 μM lenalidomide and/or 10 μM compound, 48 hours, N=6; p<0.0001
Method: Quantization of IgM was determined. Briefly, lenalidomide-treated or vehicle control-treated CLL cells, were irradiated and placed in culture with target, purified B-cells, in the absence or presence of PWM ([…]).
Given the importance of the CD40-CD154 axis for lenalidomide-treated CLL cells to promote normal B-cells to produce immunoglobulin, the compound of formula I was assessed to see whether it could prevent this occurrence. […] CLL cells were irradiated (20 Gy) and placed in culture with purified B-cells, in the absence or presence of 5 μg/mL PWM. Quantification of IgM was determined by ELISA analysis.

[3] = system: HS-578T, T47D, and MCF7 cells; experiment: Apoptosis in breast cancer cell lines (Annexin V-FITC/7AAD); assay type: cell-based; details: 24 h
Method: HS-578T, T47D, and MCF7 cells were treated with the compound of formula I or corresponding DMSO concentrations for 24 h. The percentage of apoptotic cells was determined by Annexin V-FITC/7AAD staining. Bottom left, viable cells ([…]); bottom right, early apoptotic cells (Annexin V-FITC positive only); top right, mid-late apoptotic cells (Annexin V-FITC/7AAD double-positive); and top left, late apoptotic/necrotic (7AAD positive only). Percentages of cells in each quadrant are indicated except for the bottom left quadrant (viable cells).

[4] = system: CD19+ cells from CLL patients; experiment: mRNA expression in CD19+ CLL cells (RT-PCR); assay type: cell-based, human; details: 0.5 μM lenalidomide and/or 10 μM compound, 48 hours
Method: RNA was extracted using TRIzol reagent (Invitrogen) and cDNA was prepared using a SuperScript First-Strand Synthesis System (Invitrogen). Real-Time PCR was performed using pre-designed TaqMan® Gene Expression Assays and ABI Prism 7700 sequence detection system (Applied Biosystems, Foster City, Calif.).
RNA was extracted and converted to cDNA and RT-PCR analysis was done to determine quantities of CD40, CD86 and CD154 mRNA.
Lastly, lenalidomide treatment of CLL cells in culture was tested to determine whether it could promote tumor cell production of vascular endothelial growth factor (VEGF) and basic fibroblast growth factor (b-FGF). […] RNA was extracted and converted to cDNA and RT-PCR analysis was done to determine quantities of bFGF.
RNA was extracted and converted to cDNA and RT-PCR analysis was done to determine quantities of VEGF

SMILES: CC[C@H](Nc1ncnc2[nH]cnc12)c1nc2cccc(F)c2c(=O)n1-c1ccccc1 [Compound I, 5-fluoro-3-phenyl-2-[1-(9H-purin-6-ylamino)-propyl]-3H-quinazolin-4-one]
- decrease in tumor burden [1]: 44%
- cleavage of caspase 3 and PARP (caspase 3 and PARP): dose dependent response in the cleavage of caspase 3 and PARP
- production of IgM [2]: completely prevent production of IgM
- apoptosis in breast cancer cell lines [3]: cytotoxicity to three different breast cancer cell lines
- apoptosis in breast cancer cell lines ([3]; listed as compound of formula I): induces apoptosis in breast cancer cell lines
- VEGF transcription ([4]; N=13): reversible by treatment with the compound of formula I
- b-FGF transcription ([4]; N=15): prevented this up-regulation
- mRNA of CD40, CD86, CD154 and CD80 ([4]; N=15, p<0.009): prevent the increase in mRNA of CD40, CD86, CD154 and CD80 promoted by lenalidomide
